The text below walks through data of patent US9795561B2, “Combination of umeclidinium, fluticasone propionate and salmeterol xinafoate for use in the treatment of inflammatory or respiratory tract diseases” (Glaxo Group Limited, priority 2012, dated 2017).

One series deals with human M3 receptor (Homo sapiens, UniProt P20309). Kind of series: Reversibility at the human M3 receptor in vitro. It counts as binding.
The test system of series [1] is healthy volunteers and COPD patients. Description: Clinical pharmacology studies, single inhaled doses, plethysmography (sGaw, Raw) and spirometry (FEV1). It counts as in vivo, human. The method, then: Several clinical pharmacology studies have been conducted using umeclidinium bromide in both healthy volunteers and COPD patients to investigate the safety, tolerability, pharmacokinetics and pharmacodynamics of this compound. The bronchodilatory effects and duration of action of single inhaled doses of this compound as measured by plethysmography (sGaw, Raw) and spirometry (FEV1) were assessed in some of the above noted studies.

Another series concerns pre-clinical models. Description: Duration of action in vivo when administered directly to the lungs in pre-clinical models.
The next series relates to muscarinic receptor. Description: Muscarinic receptor antagonism, studies in animal models and in humans.
In series [2] the test system is subjects with COPD. Kind of series: 28-day once-daily dry powder inhaler study in subjects with COPD. It counts as in vivo, human. The conditions noted are these: 125, 250 and 500 mcg once-daily, 28 days. The source says:
A further study evaluated the efficacy and safety of three doses of umeclidinium (125 mcg, 250 mcg and 500 mcg as umeclidinium bromide) administered once-daily via a dry powder inhaler over a 28 day period in subjects with COPD.

The subject of series [3] is subjects with COPD. Kind of series: 14-day once-daily dose-ranging study in subjects with COPD. The format is in vivo, human. The source says:
In addition, this study confirmed that umeclidinium bromide has a once-daily profile.

Chain of human M3 receptor (P20309 whole entry): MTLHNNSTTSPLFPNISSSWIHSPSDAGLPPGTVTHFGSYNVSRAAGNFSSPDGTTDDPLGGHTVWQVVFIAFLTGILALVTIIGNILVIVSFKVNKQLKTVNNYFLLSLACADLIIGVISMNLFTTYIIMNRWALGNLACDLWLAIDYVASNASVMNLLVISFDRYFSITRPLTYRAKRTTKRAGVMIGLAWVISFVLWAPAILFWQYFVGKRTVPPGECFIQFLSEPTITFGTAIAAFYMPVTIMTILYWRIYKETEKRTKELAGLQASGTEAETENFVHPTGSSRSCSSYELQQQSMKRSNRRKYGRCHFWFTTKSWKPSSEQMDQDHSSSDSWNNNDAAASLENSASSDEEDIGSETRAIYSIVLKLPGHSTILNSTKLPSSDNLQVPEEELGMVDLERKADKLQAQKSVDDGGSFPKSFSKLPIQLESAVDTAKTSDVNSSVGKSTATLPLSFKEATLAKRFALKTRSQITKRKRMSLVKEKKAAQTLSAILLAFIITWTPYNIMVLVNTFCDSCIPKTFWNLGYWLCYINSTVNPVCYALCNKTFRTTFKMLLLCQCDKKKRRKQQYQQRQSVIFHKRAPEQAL

Turning to `OC(c1ccccc1)(c1ccccc1)C12CC[N+](CCOCc3ccccc3)(CC1)CC2.[Br-]` [umeclidinium bromide, 4-[hydroxy(diphenyl)methyl]-1-{2-[(phenylmethyl)oxy]ethyl}-1-azoniabicyclo[2.2.2]octane bromide], the “reversibility at the human M3 receptor” value at human M3 receptor is “slow reversibility”. Further, in series [1], the bronchodilatory effect result is reported as “clinically relevant bronchodilation” and the duration of action was 24 h. For the same compound, the “duration of action in vivo” value in the series on pre-clinical models is “long duration of action”. In addition, the “muscarinic receptor antagonist profile” value in the series with muscarinic receptor is recorded as “long acting high-affinity pan-active muscarinic receptor antagonist”. For the same compound, in the series on subjects with COPD [2], the bronchodilation result is on record as “maintaining significant bronchodilation over twenty four hours” and the safety entry is “appears to be safe”. Moreover, in the series with subjects with COPD [3] (all once-daily doses (62.5-1000 mcg), 14 days), the “improvement in trough FEV1 versus open label tiotropium (18 mcg once-daily)” value is recorded as “numerically greater improvement”. In the series with subjects with COPD [3] (five once-daily doses (62.5, 125, 250, 500, 1000 mcg) over 14 days), the “pulmonary function compared to placebo” value is given as “statistically significant improvements”.
